Assay results as given in paper PMC5362036, “Cohesive Properties of the Caulobacter crescentus Holdfast Adhesin Are Regulated by a Novel c-di-GMP Effector Protein” (mBio, 2017).

How the values were obtained:
Type in all cases: binding
HfsK (CC3689) [1] = target: T1, HfsK (CC3689) (Caulobacter vibrioides, UniProt Q9A277); test: isothermal titration calorimetry
T1 construct: gene CC_3689; full length; His-tagged (ITC) or StrepII-tagged (mutants, UV cross-linking), expressed in E. coli; tags kept as far as told
Description: isothermal titration calorimetry on HfsK (CC3689) | His-CC3689 bound c-di-GMP in a concentration-dependent manner with an equilibrium disassociation constant (Kd)

HfsK (CC3689) [2] = target: T2, HfsK (CC3689) (Caulobacter vibrioides, UniProt Q9A277, R112A); test: UV cross-linking with […]c-di-GMP; conditions: StrepII-tagged, 1 uM protein; labelled compound
T2 construct: gene CC_3689; full length; His-tagged (ITC) or StrepII-tagged (mutants, UV cross-linking), expressed in E. coli; tags kept as far as told

HfsK (CC3689) [3] = target: T3, HfsK (CC3689) (Caulobacter vibrioides, UniProt Q9A277, R240A); test: UV cross-linking with […]c-di-GMP; conditions: StrepII-tagged, 1 uM protein; labelled compound
T3 construct: gene CC_3689; full length; His-tagged (ITC) or StrepII-tagged (mutants, UV cross-linking), expressed in E. coli; tags kept as far as told

HfsK (CC3689) [4] = target: T4, HfsK (CC3689) (Caulobacter vibrioides, UniProt Q9A277, R267A); test: UV cross-linking with […]c-di-GMP; conditions: StrepII-tagged, 1 uM protein; labelled compound
T4 construct: gene CC_3689; full length; His-tagged (ITC) or StrepII-tagged (mutants, UV cross-linking), expressed in E. coli; tags kept as far as told

HfsK (CC3689) [5] = target: T5, HfsK (CC3689) (Caulobacter vibrioides, UniProt Q9A277, R151A); test: UV cross-linking with […]c-di-GMP; conditions: StrepII-tagged, 1 uM protein; labelled compound
T5 construct: gene CC_3689; full length; His-tagged (ITC) or StrepII-tagged (mutants, UV cross-linking), expressed in E. coli; tags kept as far as told

HfsK (CC3689) [6] = target: T6, HfsK (CC3689) (Caulobacter vibrioides, UniProt Q9A277, R102A); test: UV cross-linking with […]c-di-GMP; conditions: StrepII-tagged, 1 uM protein; labelled compound
T6 construct: gene CC_3689; full length; His-tagged (ITC) or StrepII-tagged (mutants, UV cross-linking), expressed in E. coli; tags kept as far as told
T6 sequence (Q9A277 entry or part of it R102A): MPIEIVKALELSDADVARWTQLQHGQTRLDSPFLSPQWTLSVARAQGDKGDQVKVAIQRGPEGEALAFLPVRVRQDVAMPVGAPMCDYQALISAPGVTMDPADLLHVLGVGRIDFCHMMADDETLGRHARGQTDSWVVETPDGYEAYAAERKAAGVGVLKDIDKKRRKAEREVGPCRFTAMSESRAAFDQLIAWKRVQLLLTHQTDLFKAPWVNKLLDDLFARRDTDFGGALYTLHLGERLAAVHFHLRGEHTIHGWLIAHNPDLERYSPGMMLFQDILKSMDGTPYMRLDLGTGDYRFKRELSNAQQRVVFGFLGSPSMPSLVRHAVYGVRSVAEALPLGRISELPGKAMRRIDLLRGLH

T2 sequence (Q9A277 entry or part of it R112A): as the sequence (Q9A277 entry or part of it R102A) above, with A102R, R112A counted along it
T3 sequence (Q9A277 entry or part of it R240A): as the sequence (Q9A277 entry or part of it R102A) above, with A102R, R240A counted along it
T4 sequence (Q9A277 entry or part of it R267A): as the sequence (Q9A277 entry or part of it R102A) above, with A102R, R267A counted along it
T5 sequence (Q9A277 entry or part of it R151A): as the sequence (Q9A277 entry or part of it R102A) above, with A102R, R151A counted along it
T1 sequence (Q9A277 entry or part of it): as the sequence (Q9A277 entry or part of it R102A) above, with A102R counted along it

Nc1nc2c(ncn2[C@@H]2O[C@@H]3COP(=O)(O)O[C@H]4[C@@H](O)[C@H](n5cnc6c(=O)[nH]c(N)nc65)O[C@@H]4COP(=O)(O)O[C@H]3[C@H]2O)c(=O)[nH]1 [c-di-GMP]
Kd (HfsK (CC3689) [1]): 724 nM
UV cross-linking with [33P]c-di-GMP (HfsK (CC3689) [2]): HfsKR112a as the only mutant variant with reduced binding affinity for c-di-GMP
UV cross-linking with [33P]c-di-GMP (HfsK (CC3689) [3]): residues of HfsK (R102, R112, R151, R240, and R267) were replaced with alanine
UV cross-linking with [33P]c-di-GMP (HfsK (CC3689) [4]): residues of HfsK (R102, R112, R151, R240, and R267) were replaced with alanine
UV cross-linking with [33P]c-di-GMP (HfsK (CC3689) [5]): residues of HfsK (R102, R112, R151, R240, and R267) were replaced with alanine
UV cross-linking with [33P]c-di-GMP (HfsK (CC3689) [6]): residues of HfsK (R102, R112, R151, R240, and R267) were replaced with alanine
